Drawing on US20040198707A1, “Means and method for hormonal contraception” (priority 2001, published 2004), this text covers Conversion factor for four compounds.

The test in a line: conversion factors for progestogens: amount equivalent to a given amount of levonorgestrel. To be noted: estimate of the amount of progestogen equivalent to a given amount of levonorgestrel (levonorgestrel = 1). From the text: In order to determine for a specific biogenic estrogen or synthetic estrogen the amounts that are equivalent to a cited amount of ethinyl estradiol or 17beta-estradiol, the method described by Allen and Doisy may suitably be used (Allen A., Doisy E. A., “An ovarian hormone. Preliminary report on its localization, extraction and partial purification, and action in test animals. JAMA (1923), 81, 819-821). Similarly, in order to determine for a given progestogen the amount equivalent to cited amount of levonorgestrel the method originally described by McPhail can be used (Mc Phail M. K. “The assay of progestin” J Physiol (1934), 83, 145-156). A more recent description of this method can be found in an article written by Overbeek G. A., de Visser J. “A new substance with progestational activity”, Acta Endocrinol (1956), 22,318-329. It is noted that the aforementioned methods will provide useful indications about the anticipated estrogen potency or progestogen potency of a particular hormone. However, to accurately determine the equivalent amounts that are referred to above, it is advisable to additionally conduct in vivo studies in human females.
For guidance the table below provides the conversion factors for a number of progestogens that may suitably be used in the method of the invention. These conversion factors may be used to calculate, for each progestogen mentioned in the table, an estimate of the amount of said progestogen which is equivalent to a given amount of levonorgestrel.

`C[C@]12CCC(=O)C=C1[C@@H]1C[C@@H]1[C@H]1[C@@H]3[C@@H]4C[C@@H]4[C@@]4(CCC(=O)O4)[C@@]3(C)CC[C@@H]12` [drospirenone]: the Conversion factor is recorded as 20.

Regarding `CC(=O)[C@H]1CC[C@H]2[C@@H]3C=CC4=CC(=O)CC[C@@]4(C)[C@@H]3CC[C@]12C` [dydrogesterone], the Conversion factor is recorded as 133.

In the case of `C#C[C@]1(O)CC[C@H]2[C@@H]3CCC4=CC(=O)CC[C@@H]4[C@H]3CC[C@@]21C` [norethisterone], the Conversion factor is on record as 7.

As for `C#C[C@]1(OC(C)=O)CC[C@H]2[C@@H]3CCC4=CC(=NO)CC[C@@H]4[C@H]3CC[C@@]21CC` (mixture of isomers) [norgestimate], the Conversion factor was 1.7.
